In patent publication US20200123127A1, “REMOVAL OF SENESCENCE-ASSOCIATED MACROPHAGES” (EVERON BIOSCIENCES, INC., priority 2016, published 2020):

System: B16 melanoma lung metastasis in C57BL/6 mice
Assay: Senescence-enhanced B16 lung metastasis model
Assay type: in vivo, mouse
Settings: 20 mg/kg intraperitoneally once a day for 5 consecutive days; irradiated (11 Gy) C57BL/6 mice
Text: FIG. 4. Efficacy of A1.1 analogs in the senescence-enhanced B16 metastasis model. (A) Quantification of metastatic nodules by H&E morphometric analysis, and the resulting reduction in tumor burden (%) compared to vehicle control. (B) Quantitation morphometric analysis of lungs excised from irradiated mice treated with analogs of A1.1 post-inoculation of B16 cell intravenously, along with quantitation of morphometric analysis, are provided. (C) In vitro testing of A1.1 and analogs against the growth and viability of B16 cells, as assessed by the resazurin viability assay after 72 hour exposure to compounds compared to non-treated controls.
The role of senescent cells in the promotion of metastatic potential of cancer cells has also been described [Patent WO 2013090645 A1; Campisi, J. (2015). Cancer and Aging: Rival Demons]. […] To test the efficacy of A1.1, irradiated (11 Gy followed by bone-marrow transplantation) and non-irradiated C57BL/6 mice received B16 melanoma cells via tail vein injection were subsequently (72 hours later) administered A1.1 (20 mg/kg) intraperitoneally once a day for 5 consecutive days.
Synthesized analogs were also tested in vivo, to assess whether optimized structures are capable of showing activity against senescence-mediated B16 lung metastasis in irradiated mice (FIG. 4B). Analogs A1.1, A1.12, A1.13, A1.14, A1.15, and A1.6 were administered at 20 mg/kg intraperitoneally for 5 consecutive days. In addition to A1.1, treatment with analogs A1.12, A1.14 and A1.15 at 20 mg/kg reduced the metastatic burden in the lungs of irradiated mice by more than 2-fold.

COc1ccc(C2C/C(=N\O)c3c(SCc4ccccc4)sc(C(=O)N4CCOCC4)c3C2)cc1 (stereo not shown) [Example A1.13, (3-(Benzylthio)-4-(hydroxyimino)-6-(4-methoxyphenyl)-4,5,6,7tetrahydrobenzo[c]thiophen-1-yl)(morpholino)methanone]
reduction of B16 metastatic load in the lungs of irradiated mice vs vehicle: did not show a substantial decrease
